Assay results as given in ChEMBL document CHEMBL1152381, “Investigation of aminopyridiopyrazinones as PDE5 inhibitors: Evaluation of modifications to the central ring system” (Bioorg Med Chem Lett, 2009).
pIC50: −log10 of the molar value. In brackets after ≈: the same amount, converted by molar mass.

Assays:
[1] = Inhibition of PDE11
[2] = target: cGMP-specific 3',5'-cyclic phosphodiesterase (Homo sapiens, UniProt O76074); assay: Inhibition of PDE5
[3] = Inhibition of PDE6
hERG (KCNH2) = hERG (KCNH2) (Homo sapiens, UniProt Q12809); assay: Displacement of dofetilide from human ERG at 10 uM; conditions: probe dofetilide
hERG (KCNH2), sequence (Q12809 whole entry): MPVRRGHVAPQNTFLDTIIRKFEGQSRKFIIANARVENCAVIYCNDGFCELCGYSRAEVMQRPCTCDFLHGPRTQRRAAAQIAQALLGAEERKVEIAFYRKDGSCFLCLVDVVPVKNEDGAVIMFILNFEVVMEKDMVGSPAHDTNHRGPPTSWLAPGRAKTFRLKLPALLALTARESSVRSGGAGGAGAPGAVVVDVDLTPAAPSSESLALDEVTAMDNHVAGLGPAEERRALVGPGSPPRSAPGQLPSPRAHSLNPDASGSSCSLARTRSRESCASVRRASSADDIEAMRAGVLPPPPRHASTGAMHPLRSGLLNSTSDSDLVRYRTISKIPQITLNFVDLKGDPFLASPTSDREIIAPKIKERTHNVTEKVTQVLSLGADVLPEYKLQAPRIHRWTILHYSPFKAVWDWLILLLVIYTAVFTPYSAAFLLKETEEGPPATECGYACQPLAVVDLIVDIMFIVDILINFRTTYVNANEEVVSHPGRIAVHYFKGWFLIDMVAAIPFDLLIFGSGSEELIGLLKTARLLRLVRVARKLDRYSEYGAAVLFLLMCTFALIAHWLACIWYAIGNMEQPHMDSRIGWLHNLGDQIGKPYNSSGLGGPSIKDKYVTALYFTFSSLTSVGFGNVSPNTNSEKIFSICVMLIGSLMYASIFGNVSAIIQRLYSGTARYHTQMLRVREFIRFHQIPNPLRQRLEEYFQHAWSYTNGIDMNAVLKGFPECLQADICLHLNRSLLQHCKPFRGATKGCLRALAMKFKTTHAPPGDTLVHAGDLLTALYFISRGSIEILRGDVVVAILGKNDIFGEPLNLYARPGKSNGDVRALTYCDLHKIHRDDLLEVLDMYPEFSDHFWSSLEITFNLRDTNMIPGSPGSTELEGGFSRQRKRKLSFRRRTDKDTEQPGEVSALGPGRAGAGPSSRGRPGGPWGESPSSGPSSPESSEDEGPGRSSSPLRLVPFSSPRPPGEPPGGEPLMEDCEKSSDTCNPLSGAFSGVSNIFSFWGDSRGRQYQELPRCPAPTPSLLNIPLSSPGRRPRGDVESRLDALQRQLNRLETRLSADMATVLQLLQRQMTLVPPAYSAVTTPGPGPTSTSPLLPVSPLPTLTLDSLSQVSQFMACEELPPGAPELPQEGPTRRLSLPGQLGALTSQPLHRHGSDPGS

[4] = Metabolic stability in human hepatocytes assessed as compound remaining after 30 mins; type: ADME, cell-based, Hepatocyte; conditions: read-out: Stability
[5] = Volume of distribution in Sprague-Dawley rat at 2 mg/kg, iv and 2 mg/kg, po; type: ADME, organism-based; conditions: in vivo
[6] = Bioavailability in Sprague-Dawley rat at 2 mg/kg, iv and 2 mg/kg, po; type: ADME, organism-based; conditions: in vivo
[7] = Clearance in Sprague-Dawley rat at 2 mg/kg, iv and 2 mg/kg, po; type: ADME, organism-based; conditions: in vivo
[8] = Metabolic stability in human liver microsomes assessed as compound remaining after 30 mins; type: ADME, Microsome; conditions: read-out: Stability
[9] = Aqueous solubility at pH 7.4; type: physicochemical
[10] = Plasma protein binding in Sprague-Dawley rat at 2 mg/kg, iv and 2 mg/kg, po; type: ADME, organism-based; conditions: read-out: PPB (converted)
[11] = Half life in Sprague-Dawley rat at 2 mg/kg, iv and 2 mg/kg, po; type: ADME, organism-based; conditions: in vivo
[12] = target: Voltage-gated inwardly rectifying potassium channel KCNH2 (Homo sapiens, UniProt Q12809); assay: Inhibition of human ERG by patch-clamp electrophysiology assay
Voltage-gated inwardly rectifying potassium channel KCNH2, sequence (Q12809 whole entry): as above

Rattus norvegicus = assay: Antihypertensive activity in SHR rat assessed as reduction in systemic arterial blood pressure at 1.5 mg/kg, ip administered as single bolus dose measured for > 3 hrs; type: functional, Artery; conditions: route intraperitoneal
[13] = Selectivity ratio of IC50 for PDE11 to IC50 for PDE5
[14] = Selectivity ratio of IC50 for PDE6 to IC50 for PDE5

pIC50 [1] | pIC50 [2] | pIC50 [3] | remaining at 0.5 h [4] [%] | Vd [5] [L/kg] | bioavailability [6] [%] | clearance [7] [mL/min/kg] | remaining at 0.5 h [8] [%] | solubility [9] [µM] | fraction unbound [10] | half-life [11] [h] | Ratio IC50 [13] | Ratio IC50 [14] | SMILES | inhibition at 10 µM (hERG (KCNH2)) [%] | inhibition (INH) [12] [%] | Activity (Rattus norvegicus) [mmHg]
< 5.70 | 9.05 | 6.75 | 20 |  |  |  |  |  |  |  |  |  | CCCOCCn1c(=O)c(NCCN2CCOCC2)nc2ccc(-c3ccc(OC)nc3)cc21 | 43 |  | 
5.81 |  | 6.47 |  | 8 | 23 | 67.6 | 10 | 4.6 (≈ 2.16 µg/mL) | 0.104 | 3.1 |  |  | CCCOCCn1c(=O)c(NCCN2CCOCC2)nc2ccc(-c3ccc(OC)nc3)nc21 | 14 |  | 
5.86 | 9.47 | 7.21 |  | 18.8 |  | 178 | 18 | 46 (≈ 21.6 µg/mL) | 0.235 | 3.4 |  |  | CCCOCCn1c(=O)c(NCCN2CCOCC2)nc2ncc(-c3ccc(OC)nc3)cc21 | 34 | 34 | 25
5.83 | 8.92 | 7.08 |  |  |  |  | 22 | 4.6 (≈ 2.16 µg/mL) |  |  |  |  | CCCOCCn1c(=O)c(NCCN2CCOCC2)nc2cnc(-c3ccc(OC)nc3)nc21 | 15 |  | 
5.45 | 8.92 | 6.53 |  | 5.2 |  | 151 | 12 |  | 0.088 | 0.6 | 335 | < 30 | CCCOCCn1c(=O)c(NCCN2CCOCC2)nc2ncc(-c3ccc(OC)nc3)nc21 | 11 |  | 
6.46 | 10.15 | 7.95 |  | 1.6 | 21 | 33.6 | 38 | 18 (≈ 8.43 µg/mL) | 0.5 | 3.2 |  |  | CCCOCCn1c(=O)c(NCCN2CCOCC2)nc2cnc(-c3ccc(OC)nc3)cc21 | 23 |  | 
